Reference: patent publication US20230015949A1, “NEISSERIA TREATMENT USING CANNABINOIDS” (priority 2019, published 2023)
≈ marks a conversion by molar mass, not a printed value. Read-outs that look alike come from different tables or passages of the source.

Experiments:
Format in all cases: cell-based
[1] = tested on: Staphylococcus aureus ATCC 29213; assay: Broth microdilution MIC assay, quality control strain (Example 2); conditions: ATCC29213, S. aureus ATCC 29213 (QC), CAMHB
Procedure: Following incubation, colonies were harvested from these plates and cell suspensions prepared and frozen at −80° C. with a cryoprotectant. Prior to testing, N. gonorrhoeae isolates were streaked onto Chocolate Agar [Becton Dickinson, (BD), Sparks, Md.; Lot No. 922807]; Staphylococcus aureus ATCC 29213 tested for quality control (QC) purposes was streaked onto Trypticase Soy Agar with 5% Sheep Blood (TSA II; BD; Lot No. 9219399).
Cation-adjusted Mueller Hinton broth (CAMHB; BD; Lot No. 9019592) was used for MIC testing of S. aureus ATCC 29213 for QC purposes.
MIC values were determined using a broth microdilution procedure described by CLSI (1, 2). Automated liquid handlers (Multidrop 384, Labsystems, Helsinki, Finland; Biomek 2000 and Biomek FX, Beckman Coulter, Fullerton Calif.) were used to conduct serial dilutions and liquid transfers.
(§1) To prepare the drug mother plates, which would provide the serial drug dilutions for the replicate daughter plates, the wells of columns 2 through 12 of standard 96-well microdilution plates (Costar 3795) were filled with 150 μl of the designated diluent for each row of drug. The test articles and comparator compounds (300 μl at 100× the highest concentration to be tested) were dispensed into the appropriate wells in column 1. The Biomek 2000 was then used to make 2-fold serial dilutions in the mother plates from column 1 through column 11. The wells of column 12 contained no drug and served as the organism growth control wells for the assay.
(§2) The daughter plates were loaded with 190 μL per well of the appropriate test medium for the tested organism using the Multidrop 384. The daughter plates were completed on the Biomek FX instrument which transferred 2 μL of drug solution from each well of a mother plate to the corresponding well of each daughter plate in a single step. Daughter plates for the testing of anaerobes were allowed to pre-reduce in the Bactron II anaerobe chamber for 2 hr prior to inoculation.
(§3) A standardized inoculum of each test organism was prepared per CLSI methods (1, 2). The inoculum for each organism was dispensed into sterile reservoirs divided by length (Beckman Coulter), and the Biomek 2000 was used to inoculate the plates. Daughter plates were placed on the Biomek 2000 work surface in reverse orientation so that inoculation took place from low to high drug concentration. Anaerobic organisms were inoculated by hand in the Bactron II anaerobic chamber. Bacterial plates were then inoculated with 10 μL of the inoculum resulting in a final cell density of approximately 5×10^5 CFU/mL.
Plates were stacked 3 to 4 high, covered with a lid on the top plate and placed in plastic bags. […] The MIC was read and recorded as the lowest concentration of drug that inhibited visible growth of the organism.

Neisseria gonorrhoeae [2] = assay: Agar dilution MIC assay, 25 isolates (Example 3); conditions: for MIC: Neisseria gonorrhoeae, agar dilution
Procedure: The MIC of Neisseria gonorrhoea was established using an agar dilution MIC assay.
Test drugs were provided by Micromyx. All stock solutions were allowed to stand for at least 1 hr prior to use to auto-sterilize. Leftover stock solutions of comparator drugs were aliquoted and stored at −80° C. Suppliers, catalog/lot numbers, solvents, stock concentrations and testing ranges were as follows.
Test organisms were reference strains from the American Type Culture Collection (ATCC; Manassas, Va.), isolates from WHO, isolates from the CDC antibiotic resistance bank, and clinical isolates from the Micromyx (MMX) repository. Upon receipt at Micromyx, the isolates were streaked under suitable conditions onto agar medium appropriate to each organism and were incubated for 24-48 hr at 35° C. Colonies harvested from these growth plates were resuspended in the appropriate medium containing a cryoprotectant. Aliquots of each suspension were then frozen at −80° C.
Prior to testing, the isolates were sub-cultured onto Chocolate agar (Becton Dickenson [BD]/BBL; Sparks, Md., Cat. No. 221267, Lot No. 9346275) and placed at 35° C. in a CO2 incubator for 24 hrs.
MIC values were determined using the agar dilution method (1, 2). All serial dilutions and liquid handling were performed by hand using sterile pipettes. […] Cannabidiol was prepared as a stock solution at 100× the final concentration in the appropriate solvent and diluted according to CLSI guidelines.
Each test agent was mixed with molten (50-55° C.) GC media agar supplemented with 1% IsoVitalex. […] All other test agents were added to the medium in a ratio of 0.2 mL 100× test agent to 19.8 mL agar. Once test agents were added to the agar in a sterile tube, they were mixed gently and then poured into a sterile 110×15 mm petri dish. Plates were allowed to solidify at room temperature and placed in a laminar air flow hood with the covers off to remove condensed moisture on the agar surface.
Next, each isolate was suspended to the equivalent of a 0.5 McFarland standard in saline using a Siemens Microscan turbidity meter and diluted 1:10. Each bacterial cell suspension was then transferred to wells in a stainless-steel replicator block. The prongs on the replicator deliver approximately 1-2 μl of inoculum to an agar surface. The resulting inoculum spots contained approximately 10^4 cells/spot.
Each agar plate containing either test compound or no drug (control) was stamped with the replicator. All plates were placed with the agar surface up to allow for the inoculum to soak into the agar. The plates were inverted and incubated at 35° C. for 24 hrs in a CO2 incubator and finally inspected for growth.

Neisseria gonorrhoeae [3] = assay: Broth microdilution MIC testing (Example 1)
Procedure: (§4) In this study, to evaluate the spectrum of activity, cannabidiol (CBD) was profiled against Neisseria. Testing was conducted following guidelines recommended by the Clinical and Laboratory Standards Institute (CLSI, 1-4), using vancomycin, meropenem, levofloxacin, and gentamicin as comparators for testing aerobic bacteria.
(§5) Test agents were supplied by Micromyx. Stock solutions of all compounds were prepared on the first day of testing at 101× the highest test concentration using solvents recommended by CLSI. CBD was prepared fresh on each of testing.
(§6) The test organisms evaluated in this study consisted of clinical isolates from the Micromyx Repository, reference isolates from the American Type Culture Collection (ATCC; Manassas, Va.), isolates from the antibiotic resistance bank from the Centers for Disease Control and Prevention (CDC; Atlanta, Ga.), and isolates from the Network on Antimicrobial Resistance in Staphylococcus aureus (NARSA; BEI Resources, Manassas, Va.). Upon initial receipt at Micromyx, the organisms were sub-cultured onto an appropriate agar medium. Following incubation, colonies were harvested from these plates and cell suspensions prepared and frozen at −80° C. with a cryoprotectant.
(§7) Prior to testing, Neisseria was streaked onto Chocolate agar (BD; Lot No. 9228071) and incubated at 35° C. in 5% CO2 for 24 hr.
(§8) For Neisseria, a modified medium described by the ATCC as capable of supporting growth was used. This medium contains 15 g Oxoid Special Peptone, 1 g corn starch (Ward's Science; Rochester, N.Y.; Lot 39-3271), 5 g NaCl (VWR; 57897), 4 g K2HPO4 (Sigma; Lot SLBT7061), 1 g KH2PO4 (SLBC1921V), and 1% IsoVitaleX (BD; Lot 8323954) enrichment per 500 mL.
(§9) MIC values were determined using a broth microdilution procedure described by CLSI (1-4). Automated liquid handlers (Multidrop 384, Labsystems, Helsinki, Finland; Biomek 2000 and Biomek FX, Beckman Coulter, Fullerton, Calif.) were used to conduct serial dilutions and liquid transfers.
as §1, with “article” for “articles”, “101×” for “100×”
as §2, with “step.” for “step. Daughter plates for the testing of anaerobes were allowed to pre-reduce in the Bactron II anaerobe chamber for 2 hr prior to inoculation.”
as §3, with “(1-4).” for “(1, 2).”, “Plates” for “Anaerobic organisms”, “were” for “were inoculated by hand in the Bactron II anaerobic chamber. Bacterial plates were then”, “CFU/mL per well.” for “CFU/mL.”
The plates for testing of aerobic organisms were stacked 3 to 4 high, covered with a sterile lid, and incubated at 35° C. and 5% CO2 for the time periods specified in CLSI (1-4). […] Following incubation, the microplates were removed from the incubator and viewed from the bottom using a plate viewer. […] The MIC was read and recorded as the lowest concentration of drug that inhibited visible growth of the organism.

Neisseria meningitidis = assay: Broth microdilution MIC testing (Example 1)
Procedure: as §4, §5, §6, §7, §8, §9
as §1, with “article” for “articles”, “101×” for “100×”
as §2, with “step.” for “step. Daughter plates for the testing of anaerobes were allowed to pre-reduce in the Bactron II anaerobe chamber for 2 hr prior to inoculation.”
A standardized inoculum of each test organism was prepared per CLSI methods (1-4). The inoculum for each organism was dispensed into sterile reservoirs divided by length (Beckman Coulter), and the Biomek 2000 was used to inoculate the plates. […]
The plates for testing of aerobic organisms were stacked 3 to 4 high, covered with a sterile lid, and incubated at 35° C. and 5% CO2 for the time periods specified in CLSI (1-4). […] The MIC was read and recorded as the lowest concentration of drug that inhibited visible growth of the organism.

[4] = 25 isolates, agar dilution assay, MIC distribution
[5] = Neisseria gonorrhoeae, ATCC49226, N. gonorrhoeae MMX 0683 / ATCC 49226, broth microdilution, plate read at 40 hr, read-out: MIC
[6] = Neisseria gonorrhoeae, N. gonorrhoeae MMX 6746, broth microdilution, read-out: MIC
[7] = Neisseria gonorrhoeae, N. gonorrhoeae MMX 6757, broth microdilution, plate read at 40 hr, read-out: MIC
[8] = Neisseria meningitidis, ATCC13090, N. meningitidis MMX 0707 / ATCC 13090, broth microdilution, read-out: MIC

Q: Which MIC [1] does the source give for `O=C(O)c1cn(C2CC2)c2cc(N3CCNCC3)c(F)cc2c1=O` [CIP, ciprofloxacin] here?
A: 0.25 µg/mL (≈ 0.754 µM)

Q: What about the “Number of isolates at MIC 0.015 μg mL^−1” value (Neisseria gonorrhoeae [2]; [4]) of the same molecule?
A: 3

Q: What about the “Number of isolates at MIC 0.03 μg mL^−1” value (Neisseria gonorrhoeae [2]; [4]) of the same molecule?
A: 0

Q: What about the “Number of isolates at MIC 0.06 μg mL^−1” value (Neisseria gonorrhoeae [2]; [4]) of the same molecule?
A: 0

Q: What about the “Number of isolates at MIC 0.12 μg mL^−1” value (Neisseria gonorrhoeae [2]; [4]) of the same molecule?
A: 1

Q: What about the “Number of isolates at MIC 0.25 μg mL^−1” value (Neisseria gonorrhoeae [2]; [4]) of the same molecule?
A: 0

Q: And the “Number of isolates at MIC 0.5 μg mL^−1” value (Neisseria gonorrhoeae [2]; [4])?
A: 0

Q: What about the “Number of isolates at MIC 1 μg mL^−1” value (Neisseria gonorrhoeae [2]; [4]) of the same molecule?
A: 0

Q: And the “Number of isolates at MIC 4 μg mL^−1” value (Neisseria gonorrhoeae [2]; [4])?
A: 2

Q: And the “Number of isolates at MIC >8 μg mL^−1” value (Neisseria gonorrhoeae [2]; [4])?
A: 11

Q: What about the “Number of isolates at MIC ≤0.004 μg mL^−1” value (Neisseria gonorrhoeae [2]; [4]) of the same molecule?
A: 6

Q: And the MIC (Neisseria gonorrhoeae [2]; N. gonorrhoeae CDC 0177)?
A: 0.015 µg/mL (≈ 0.0453 µM)

Q: And the MIC (Neisseria gonorrhoeae [2]; N. gonorrhoeae CDC 0181)?
A: 0.015 µg/mL (≈ 0.0453 µM)

Q: What about the MIC (Neisseria gonorrhoeae [2]; NCTC13478, N. gonorrhoeae NCTC 13478 (WHO G)) of the same molecule?
A: 0.12 µg/mL (≈ 0.362 µM)

Q: What about the MIC (Neisseria gonorrhoeae [2]; NCTC13481, N. gonorrhoeae NCTC 13481 (WHO M)) of the same molecule?
A: 2 µg/mL (≈ 6.04 µM)

Q: And the MIC (Neisseria gonorrhoeae [2]; NCTC13483, N. gonorrhoeae NCTC 13483 (WHO O))?
A: 0.015 µg/mL (≈ 0.0453 µM)

Q: For gentamicin, which MIC (Neisseria gonorrhoeae [3]; N. gonorrhoeae MMX 0683 / ATCC 49226, broth microdilution, plate read at 40 hr) is on record?
A: 4 µg/mL

Q: What about the MIC (Neisseria gonorrhoeae [3]; N. gonorrhoeae MMX 6746, broth microdilution) of the same molecule?
A: 16 µg/mL

Q: What about the MIC (Neisseria gonorrhoeae [3]; N. gonorrhoeae MMX 6757, broth microdilution, plate read at 40 hr) of the same molecule?
A: 8 µg/mL

Q: What about the MIC (Neisseria meningitidis; N. meningitidis MMX 0707 / ATCC 13090, broth microdilution) of the same molecule?
A: 8 µg/mL

Q: With `C[C@@H](O)[C@H]1C(=O)N2C(C(=O)O)=C(S[C@@H]3CN[C@H](C(=O)N(C)C)C3)[C@H](C)[C@H]12` [MEM, meropenem] as the molecule, how does the MIC (Neisseria gonorrhoeae [3]; [5]) read?
A: < 0.03 µg/mL

Q: And the MIC (Neisseria gonorrhoeae [3]; [6])?
A: 0.06 µg/mL (≈ 0.156 µM)

Q: What about the MIC (Neisseria gonorrhoeae [3]; [7]) of the same molecule?
A: < 0.03 µg/mL

Q: And the MIC (Neisseria meningitidis; [8])?
A: < 0.03 µg/mL

Q: For `C[C@H]1COc2c(N3CCN(C)CC3)c(F)cc3c(=O)c(C(=O)O)cn1c23` [LVX, levofloxacin], which MIC (Neisseria gonorrhoeae [3]; [5]) is on record?
A: 0.002 µg/mL (≈ 0.00553 µM)

Q: And the MIC (Neisseria gonorrhoeae [3]; [6])?
A: 4 µg/mL (≈ 11.1 µM)

Q: And the MIC (Neisseria gonorrhoeae [3]; [7])?
A: 0.015 µg/mL (≈ 0.0415 µM)

Q: And the MIC (Neisseria meningitidis; [8])?
A: 0.004 µg/mL (≈ 0.0111 µM)

Q: `CN[C@H](CC(C)C)C(=O)N[C@H]1C(=O)N[C@@H](CC(N)=O)C(=O)N[C@H]2C(=O)N[C@H]3C(=O)N[C@H](C(=O)N[C@H](C(=O)O)c4cc(O)cc(O)c4-c4cc3ccc4O)[C@H](O)c3ccc(c(Cl)c3)Oc3cc2cc(c3O[C@@H]2O[C@H](CO)[C@@H](O)[C@H](O)[C@H]2O[C@H]2C[C@](C)(N)[C@H](O)[C@H](C)O2)Oc2ccc(cc2Cl)[C@H]1O` [VAN, vancomycin] was tested. Which MIC (Neisseria gonorrhoeae [3]; Neisseria gonorrhoeae) did it give?
A: 16 µg/mL (≈ 11 µM)

Q: What about the MIC (Neisseria gonorrhoeae [3]; Neisseria gonorrhoeae, 40 h) of the same molecule?
A: 32 µg/mL (≈ 22.1 µM)

Q: And the MIC (Neisseria gonorrhoeae [3]; Neisseria gonorrhoeae, ATCC49226, 40 h)?
A: 8 µg/mL (≈ 5.52 µM)

Q: And the MIC (Neisseria meningitidis; Neisseria meningitidis, ATCC13090)?
A: > 32 µg/mL
